{"source": "patent US20120214818A1", "about": "“METHODS OF TREATING DIASTOLIC DYSFUNCTION AND RELATED CONDITIONS” (THE BOARD OF TRUSTEES OF THE UNIVERSITY OF ILLINOIS, priority 2009, published 2012)", "key": {"DOCA-salt and sham mice": {"system": "DOCA-salt and sham mice", "experiment": "Noninvasive echocardiographic assessment of diastolic dysfunction, acute ranolazine", "type": "in vivo, mouse", "settings": "30 mg/kg ranolazine intraperitoneal; for E/A, early to late diastolic filling velocity / E/E′ / E′, early septal mitral annulus velocity (TDI) / E′/A′ / Sm, systolic septal mitral annulus velocity (TDI): 30 min; for EF, ejection fraction (Table 3) / FS, fractional shortening: echocardiogram 30 min later", "experimental": "Generation of DOCA-salt mouse model: Previously, it was shown that this model leads to mild hypertension, myocardial oxidative stress, and diastolic dysfunction.^20 A gradual and mild elevation in blood pressure was induced by unilateral nephrectomy, subcutaneous implantation of a controlled release deoxycorticosterone acetate (DOCA) pellet (0.7 mg/d; Innovative Research of America, Sarasota, Fla.), and substituting drinking water with 1.05% saline. Control animals underwent a sham operation, had placebo pellet implantation, and received water without salt. Noninvasive assessment of diastolic dysfunction: Mice were anesthetized, maintained at 37° C., and studied by echocardiography (Vevo 770, VisualSonics Inc, Toronto, Canada). M-mode images in the parasternal long axis and the left ventricle (LV) short-axis views at the mid-papillary level. Measurements were averaged from three consecutive beats during expiration. LV inflow velocities (E and A waves) were interrogated by conventional pulsed-wave Doppler from the apical four-chamber view. The mitral annulus longitudinal velocities (Sm, E′, and A′) were determined by pulsed-wave tissue Doppler from the apical four-chamber view. Interpretation was done by two investigators blinded to the treatment groups. First, baseline images were acquired. Subsequently, the mice were injected with 30 mg/kg ranolazine by intraperitoneal route, followed by a second echocardiogram 30 min later. Previously, we have shown that this model leads to mild hypertension, myocardial oxidative stress, and diastolic dysfunction.^20 A gradual and mild elevation in blood pressure was induced by unilateral nephrectomy, subcutaneous implantation of a controlled release deoxycorticosterone acetate (DOCA) pellet (0.7 mg/d; Innovative Research of America, Sarasota, Fla.), and substituting drinking water with 1.05% saline. Control animals underwent a sham operation, had placebo pellet implantation, and received water without salt. Mice were anesthetized, maintained at 37° C., and studied by echocardiography (Vevo 770, VisualSonics Inc, Toronto, Canada). M-mode images in the parasternal long axis and the left ventricle (LV) short-axis views at the mid-papillary level were taken. Measurements were averaged from three consecutive beats during expiration. LV inflow velocities (E and A waves) were interrogated by conventional pulsed-wave Doppler from the apical four-chamber view. The mitral annulus longitudinal velocities (Sm, E′, and A′) were determined by pulsed-wave tissue Doppler from the apical four-chamber view. Interpretation was done by a two investigators blinded to the treatment groups. First, baseline images were acquired. Subsequently to determine the acute effect, the mice were injected with 30 mg/kg ranolazine by intraperitoneal route, followed by a second echocardiogram 30 min later."}, "[1]": {"system": "myofilaments of skinned left ventricular papillary fiber bundles", "experiment": "Ca2+-sensitivity of tension in skinned fiber bundles (first series, pCa-tension)", "type": "biochemical, mouse", "settings": "for myofilament Ca2+ sensitivity: DOCA-salt fibers/myocytes treated with ranolazine", "experimental": "Ca^2+-sensitivity of tension in skinned fibers: Myofilament response to Ca^2+ was measured as essentially described in Reference 24. Left ventricular papillary muscles were dissected from mouse hearts and placed in 4° C. high relaxing solution (HR), which contained 10.00 mM EGTA, 41.89 mM K-Prop, 6.57 mM MgCl2, 100.00 mM 2-[bis(2-hydroxyethyl)amino]ethanesulfonic acid (BES), 6.22 mM Na-ATP, 10.00 mM CrP, 5.00 mM Na-azide, 2.5 μg/mL Pepstatin, 1 μg/mL Leupeptin, and 50 μM PMSF, pH 7.0. The muscles were then dissected further under the microscope into uniform thin bundles of about 3-5 mm in length and 150-250 μm in diameter. The fiber bundles were placed then into a skinning solution of HR that contained 1% triton for 1-2 h at 4° C. The skinned fiber bundles were mounted with cellulose acetate glue in a force measuring apparatus and sarcomere length was adjusted to 2.2 μm using a laser diffraction pattern and width and thickness were determined for calculation of cross-sectional area. The fiber bundles were incubated in ranolazine or vehicle for 15 minutes, and then were activated at 22° C. over a series of pCa (−log of the M Ca^2+ concentration) values between pCa 8.00 and pCa 4.5. Activating solutions were prepared by mixing HR with a pCa 4.50 solution of 10.00 mM EGTA, 9.99 mM CaCl2, 22.16 mM K-Prop (K-Prop stock had 1.00 M propionic acid and 1.00 M KOH), 6.20 mM MgCl2, 100.00 mM BES, 6.29 mM Na-ATP, 10.00 mM creatine phosphate (CrP), 5.00 mM Na-azide, 2.5 μg/mL pepstatin, 1 μg/mL leupeptin, and 50 μM PMSF, pH 7.0. HR and pCa 8.00-pCa 4.50 solutions had one unit of creatine phosphokinase per 200 μL of solution. Tension generated was computed from the force/cross-sectional area and data were analyzed in the Graphpad Prism software and fit into a sigmoidal modified Hill equation in order to generate tension-pCa curves, Hill coefficients, and pCa50 (pCa value at half-maximum tension).\nWe measured myofilament response to Ca^2+ under two experimental conditions as described in detail below. In a first series of experiments the skinned fiber bundles were mounted in a force measuring apparatus and sarcomere length (SL) was adjusted to 2.2 μm using a laser diffraction pattern and width and thickness were determined for calculation of cross-sectional area. Force was measured over a range of pCa values Skinned fiber bundles were treated with 10 μmol/L ranolazine for 15 min prior to evaluation. In a second series of experiments under different experimental conditions, we determined steady-state Mg-ATPase activity, while simultaneously measuring isometric tension in skinned fiber bundles as a function of pCa. In all experiments, skinned fibers were treated with ranolazine or DMSO vehicle for 15 min prior to beginning either tension or tension/ATPase rate measurements. Tension generated was computed from the force/cross-sectional area and data were analyzed in the GraphPad Prism software and fit with a sigmoidal modified Hill equation in order to generate tension-pCa curves, Hill coefficients, and pCa50 (pCa value at half-maximum tension). We also determined cross-bridge kinetics employing a quick release/restretch protocol. The rate constant for force redevelopment, Ktr, provides a measure of the rate of cross-bridge entry into the force generating state. In all experiments, only fiber bundles retaining more than 80% of their initial maximum tension were included in the analysis. […]"}}, "note": "Where “and” joins values, the source holds several entries; their conditions need not be identical. Equal entries are not always repeated.", "data": [{"molecule": "COc1ccccc1OCC(O)CN1CCN(CC(=O)Nc2c(C)cccc2C)CC1", "note": "(stereo not shown) [ranolazine]", "values": [{"measurement": "E/A, early to late diastolic filling velocity", "setting": "DOCA-salt and sham mice; DOCA-salt mice", "result": "1.62 ± 0.11"}, {"measurement": "E/E′", "setting": "DOCA-salt and sham mice; DOCA-salt mice", "result": "31.9 ± 2.6"}, {"measurement": "E′, early septal mitral annulus velocity (TDI)", "setting": "DOCA-salt and sham mice; DOCA-salt mice", "result": "2.47 ± 0.18", "unit": "cm/s"}, {"measurement": "E′/A′", "setting": "DOCA-salt and sham mice; DOCA-salt mice", "result": "1.31 ± 0.11"}, {"measurement": "Sm, systolic septal mitral annulus velocity (TDI)", "setting": "DOCA-salt and sham mice; DOCA-salt mice", "result": "2.15 ± 0.14", "unit": "cm/s"}, {"measurement": "EF, ejection fraction (Table 3)", "setting": "DOCA-salt and sham mice; DOCA-salt mice", "result": "46.9 ± 1.6", "unit": "%"}, {"measurement": "FS, fractional shortening", "setting": "DOCA-salt and sham mice; DOCA-salt mice", "result": "46.9 ± 1.6", "unit": "%"}, {"measurement": "E/A, early to late diastolic filling velocity", "setting": "DOCA-salt and sham mice; sham mice", "result": "1.63 ± 0.07"}, {"measurement": "E/E′", "setting": "DOCA-salt and sham mice; sham mice", "result": "30.2 ± 1.9"}, {"measurement": "E′, early septal mitral annulus velocity (TDI)", "setting": "DOCA-salt and sham mice; sham mice", "result": "2.67 ± 0.11", "unit": "cm/s"}, {"measurement": "E′/A′", "setting": "DOCA-salt and sham mice; sham mice", "result": "1.16 ± 0.02"}, {"measurement": "Sm, systolic septal mitral annulus velocity (TDI)", "setting": "DOCA-salt and sham mice; sham mice", "result": "2.31 ± 0.09", "unit": "cm/s"}, {"measurement": "EF, ejection fraction (Table 3)", "setting": "DOCA-salt and sham mice; sham mice", "result": "52.8 ± 0.8", "unit": "%"}, {"measurement": "FS, fractional shortening", "setting": "DOCA-salt and sham mice; sham mice", "result": "52.8 ± 0.8", "unit": "%"}, {"measurement": "Maximum Tension", "setting": "[1]; DOCA-salt fibers treated with ranolazine (FIG. 11)", "result": "36.03±1.50", "unit": "mN/mm^2"}, {"measurement": "myofilament Ca2+ sensitivity", "setting": "[1]", "result": "returned the DOCA-salt myofilament sensitivity to levels similar to sham fibers"}, {"measurement": "myofilament Ca2+ sensitivity", "setting": "[1]; listed as Ranolazine", "result": "returned DOCA-salt myofilament sensitivity to levels similar to sham myocytes"}, {"measurement": "Hill n", "setting": "[1]; fibers from DOCA mice treated with 10 μmol/L ranolazine 15 min, listed as ranalozine", "result": "3.71+/−1.0 and 3.71±1.0"}, {"measurement": "pCa50 (pCa-tension relations normalized to maximum tension)", "setting": "[1]; fibers from DOCA mice treated with 10 μmol/L ranolazine 15 min, sarcomere length 2.2 μm, 22° C., listed as ranalozine", "result": "6.0+/−0.03 and 6.0±0.03"}]}]}
